Data: US20250295790A1, “LECTIN-TARGETING CONJUGATES” (Helmholtz-Zentrum für Infektionsforschung GmbH, priority 2021, published 2025)
Values joined by “and” are separate entries in the source; they are usually repeats but may differ in a detail not shown here. Equal values may be shown once.

Columns and labels:
LecB PA14 = LecB PA14 (Pseudomonas aeruginosa, UniProt A0A0H2ZE85); assay type: binding; details: target LecB PA14
Description: LecB (LecB PAO1 according to Hauck et al. and LecB PA14 according to Sommer et al.): A serial dilution of the test compounds was prepared in TBS/Ca, with 20% DMSO as cosolvent. A concentrated solution of LecB PAO1 or PA14 was diluted in TBS/Ca together with the fluorescent reporter ligand (N-(fluorescein-5-yl)-N′-(α-l-fucopyranosyl ethylen)-thiocarbamide) to yield concentrations of 300 nM and 20 nM, respectively. 10 μL of this mix was added to 10 μL serial dilutions of the test compounds in a black 384-well microtiter plates (Greiner Bio-One, Germany, cat. no. 781900) in triplicates. After centrifugation (2680 ref, 1 min, room temperature), the reactions were incubated for 4-8 h at room temperature in a humidity chamber. Fluorescence was measured and analysed as for LecA. Bottom and top plateaus were fixed according to the control compound in each assay (1-fucose) and the data was re-analysed with these values fixed. A minimum of three independent measurements on three plates was performed for each inhibitor.

[1] = Plasma protein binding assay (RED), murine plasma; assay type: in vitro ADME; details: mouse blood plasma
Description: (§1) Plasma protein binding was assessed using the rapid equilibrium device (RED) system from ThermoFisher. […] Dialysis buffer and plasma samples were added to the respective chambers according the manufacturer's protocol. The RED plate was sealed with a tape and incubated at 37° C. for 2 hours at 800 rpm on an Eppendorf MixMate® vortex-mixer. Then samples were withdrawn from the respective chambers. To 25 μl of each dialysis sample, 25 μl of plasma and to 25 μl of plasma sample, 25 l of dialysis buffer was added. […] Samples were incubated for 30 min on ice. Then samples were centrifuged at 4° C. at 2270 ref for 10 min. Supernatants were transferred to Greiner V-bottom 96-well plates and sealed with a tape. Then samples were subjected to HPLC-MS/MS analysis as described in the section ‘HPLC-MS/MS analysis’. The percentage of bound compound was calculated as follows: […]
(§2) Cell samples as well as plasma stability, plasma protein binding and metabolic stability samples were analysed using an Agilent 1290 Infinity II coupled to an AB Sciex 6500plus mass spec-trometer. LC conditions were as follows: column: Agilent Zorbax Eclipse Plus C18, 50×2.1 mm, 1.8 m; temperature: 30° C.; injection volume: 5 l per sample; flow rate: 700 l/min. Solvents: A: water+0.1% formic acid; solvent B: 95% acetonitrile/5% H2O+0.1% formic acid. […]

LecB PAO1 = LecB PAO1 (Pseudomonas aeruginosa, UniProt Q9HYN5); assay type: binding; details: target LecB PAO1
Description: LecB (LecB PAO1 according to Hauck et al. and LecB PA14 according to Sommer et al.): A serial dilution of the test compounds was prepared in TBS/Ca, with 20% DMSO as cosolvent. […] Fluorescence was measured and analysed as for LecA. Bottom and top plateaus were fixed according to the control compound in each assay (1-fucose) and the data was re-analysed with these values fixed. A minimum of three independent measurements on three plates was performed for each inhibitor.

[2] = Microsomal stability assay, human S9 liver microsomes; assay type: in vitro ADME; details: for metabolic stability t1/2 HLM: human S9 liver fractions; for CLmic S9human: microsomal clearance, calculated from t1/2
Description: S9 liver microsomes (mouse and human, Thermo Fisher) were thawed slowly on ice. 20 mg/ml of microsomes, 2 μl of a 100 μM solution of every compound and 183 μl of 100 mM phosphate buffer were incubated 5 min at 37° C. in a water bath. Reactions were initiated using 10 μl of 20 mM NADPH (Roth). Samples were incubated in three replicates at 37° C. under gentle agitation at 150 rpm.
At 0, 5, 15, 30, and 60 min, reactions were terminated by the addition of 180 μl acetonitrile using a Mantis Formulatrix® dispenser. Samples were vortexed for 5 min using an Eppendorf MixMate® vortex mixer and centrifuged at 2270 ref for 20 min at 4° C. The supernatants were transferred to 96-well Greiner V-bottom plates, sealed and analysed according to the section HPLC-MS/MS analysis. Peak areas of the respective time point of the compounds were normalized to the peak area at time point 0 min. Then half-life was calculated using linear regression (Microsoft Excel®). Clint [μl/min/mg protein] was calculated using the following formula: […]
Cell samples as well as plasma stability, plasma protein binding and metabolic stability samples were analysed using an Agilent 1290 Infinity II coupled to an AB Sciex 6500plus mass spec-trometer. LC conditions were as follows: column: Agilent Zorbax Eclipse Plus C18, 50×2.1 mm, 1.8 m; temperature: 30° C.; injection volume: 5 l per sample; flow rate: 700 l/min. Solvents: A: water+0.1% formic acid; solvent B: 95% acetonitrile/5% H2O+0.1% formic acid. Gradient for 2, 36 and 37: 99% A from 0 min until 1 min; 99-0% A from 1.0 until 2.2 min, 0% A until 3.2 min. Gradient for naproxene: 99% A from 0 min until 1 min; 99-0% A from 1.0 until 5.5 min, 0% A until 6.0 min. Gradient for […] and […]: 99% A from 0 min until 1.0 min, 99-0% A from 1.0 until 3.5 min, 0% A until 3.7 min. Mass transitions for controls and compounds are depicted in table 5.

[3] = Plasma protein binding assay (RED), human plasma; assay type: in vitro ADME; details: human blood plasma
Description: as §1, §2

A549 cells = assay: Cytotoxicity assay (MTT); assay type: cell-based, human; details: 24 h
Source text: Then supernatant was transferred to a 96-well-plate. […] The experiment was repeated at least three times. The error bars indicate the standard deviation.

LecA = target: T1, LecA (Pseudomonas aeruginosa, UniProt Q05097); assay: Competitive binding assay based on fluorescence polarization with LecA; details: target LecA; read-out: IC50 ± s.d.
T1 construct: made in house
Description: LecA (according to Joachim et al.): A serial dilution of the test compounds was prepared in TBS/Ca (8.0 g/L NaCl, 2.4 g/L Tris, 0.19 g/L KCl, 0.15 g/L CaCl2·2 H2O), with 30% DMSO as co-solvent. […] The measured intensities were reduced by the values of only LecA in TBS/Ca and fluorescence polarization was calculated. The data was analysed with the MARS Data Analysis Software (BMG Labtech GmbH, Germany) and fitted according to the four-parameter variable slope model. Bottom and top plateaus were fixed according to the control compounds in each assay ((p-nitrophenyl)-p-D-galactoside) and the data was re-analysed with these values fixed. A minimum of three independent measurements on three plates was performed for each inhibitor.
Averages and standard deviations were calculated from at least three independent experiments.

[4] = calculated as Ki from IC50, read-out: Ki ± s.d.

Chain of LecB PAO1 (Q9HYN5 entry or part of it): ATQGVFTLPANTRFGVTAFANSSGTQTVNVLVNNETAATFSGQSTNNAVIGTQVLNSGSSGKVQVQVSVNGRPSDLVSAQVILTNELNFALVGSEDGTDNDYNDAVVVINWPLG
Chain of LecB PA14 (A0A0H2ZE85 entry or part of it): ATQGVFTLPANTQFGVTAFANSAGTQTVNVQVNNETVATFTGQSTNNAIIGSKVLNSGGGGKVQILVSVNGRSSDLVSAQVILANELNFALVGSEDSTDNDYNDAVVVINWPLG
T1 sequence (Q05097 whole entry): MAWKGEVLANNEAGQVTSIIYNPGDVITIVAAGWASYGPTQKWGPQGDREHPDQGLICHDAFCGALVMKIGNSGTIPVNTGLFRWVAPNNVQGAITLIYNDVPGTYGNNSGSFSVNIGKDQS

CC(C)CC(NC(=O)CNC(=O)C(C)NC(=O)c1ccc(S(=O)(=O)NCC2OC(C)C(O)C(O)C2O)cc1)C(=O)NC(C)C(=O)NC1CCN(c2cc3c(cc2F)c(=O)c(C(=O)O)cn3C2CC2)C1 (stereo not drawn) [Compound 37]
IC50 (LecB PA14): 0.75 ± 0.16 µM | Ki (LecB PA14; [4]): 0.27 ± 0.06 µM | plasma protein binding mouse [1]: 30% and 30.1 ± 9.2% | IC50 (LecB PAO1): 3.59 ± 1.92 µM | IC50 ± s.d. (LecB PAO1): one-digit micromolar range | Ki (LecB PAO1; [4]): 1.43 ± 0.9 µM | metabolic stability t1/2 HLM [2]: 2.97 h | CLmic S9human [2]: 7.8 μL/min/mg protein | plasma protein binding human [3]: 51% and 51.1 ± 13.3% | IC50 (A549 cells): > 50 µM

CC(C)C[C@H](NC(=O)CNC(=O)[C@H](C)NC(=O)c1ccc(S[C@@H]2O[C@H](CO)[C@H](O)[C@H](O)[C@H]2O)cc1)C(=O)N[C@@H](C)C(=O)N[C@H]1CCN(c2cc3c(cc2F)c(=O)c(C(=O)O)cn3C2CC2)C1 [Compound 36]
plasma protein binding mouse [1]: 74% | metabolic stability t1/2 HLM [2]: 1.55 h | CLmic S9human [2]: 15 μL/min/mg protein | plasma protein binding human [3]: 97% and 97.2 ± 4.8% | IC50 (LecA): ~30 µM
